From patent US20240239792A1, “MODULATORS OF BCL-2 OR BCL-2/BCL-XL AND USES THEREOF” (APPICINE THERAPEUTICS (HK) LIMITED, priority 2021, published 2024)

Experiments:
[1] = system: DOHH2 cells; test: CellTiter-Glo cell proliferation assay, DOHH2 cells; type: cell-based; conditions: Homo sapiens, DOHH-2, 72 hours
Description: The CellTiter-Glo® Luminescent Cell Viability Assay (Promega, G7573) was used to study the cellular potency of disclosed compounds herein. The cells were harvested during the logarithmic growth period and counted with hemocytometer. The DOHH2 cells were seeded at 1.6*10^4 in 90 ul DMEM medium supplemented with 10% fetal bovine serum (FBS) (as RS4;11 cells were seeded at 4000 in 90 ul RPMI-1640 medium with 10% FBS) per well in 96-well plates and treated with 10 ul of a serial dilution of compounds disclosed herein (maximum concentration and dilution ratio determined by the results of pre-experiment may vary) for 72 hours in a 5% CO2 incubator at 37° C. Cell viability was assessed according to the manufacturer's recommendations. After the plates return to the room temperature, 100 ul of CellTiter-Glo® reagent was added to 100 ul of cell culture. The mixture was agitated on an orbital shaker for 2 minutes or placed it at room temperature for 10 minutes to allow cell lysis and stabilization of luminescent signals. Luminescent signals were recorded using Envision 2104 instrument. And GI50 values were then calculated.

[2] = target: T1, BCL-2 (Homo sapiens, UniProt P10415); test: HTRF BCL-2/BAK assay (Cisbio); type: binding; conditions: recombinant human Tag1-BCL-2 2 nM, Tag2-BAK 10 nM
T1 construct: purchased Cisbio 63ADK000CB01PEG
T1 sequence (P10415 whole entry): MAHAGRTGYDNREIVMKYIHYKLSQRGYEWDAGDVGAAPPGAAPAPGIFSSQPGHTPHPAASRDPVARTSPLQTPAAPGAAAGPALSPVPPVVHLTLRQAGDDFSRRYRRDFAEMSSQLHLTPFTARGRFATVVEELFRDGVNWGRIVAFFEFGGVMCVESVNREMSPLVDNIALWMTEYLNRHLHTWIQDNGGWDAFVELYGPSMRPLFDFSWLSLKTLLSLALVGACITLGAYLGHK
Description: (§1) Then the pre-mixed anti-Tag1-Eu^3+ and anti-tag2-XL665 were added to the plate and further incubated at room temperature for another 2 hours. The signals ([…]) were read on Envision 2104 instrument. The IC50 for each compound was derived from fitting the signal of 665/615 nM to the increasing compound concentration.
(§2) Using the above assays, the following compounds were tested.

[3] = target: T2, BCL-XL (Homo sapiens, UniProt Q07817); test: HTRF BCL-XL/BAK assay (Cisbio); type: binding; conditions: recombinant human Tag1-BCL-XL 2 nM, Tag2-BAK 5 nM
T2 construct: purchased Cisbio 63ADK000CB04PEG
T2 sequence (Q07817 whole entry): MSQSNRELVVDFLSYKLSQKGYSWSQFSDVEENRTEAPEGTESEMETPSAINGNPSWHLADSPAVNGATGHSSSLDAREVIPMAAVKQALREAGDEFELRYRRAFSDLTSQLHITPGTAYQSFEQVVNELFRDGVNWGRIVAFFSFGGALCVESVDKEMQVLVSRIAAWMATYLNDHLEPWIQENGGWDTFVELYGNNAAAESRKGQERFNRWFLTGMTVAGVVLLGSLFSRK
Description: as §1, §2

Structure (SMILES)	GI50 [1] [nM]	IC50 [2] [nM]	IC50 [3] [nM]
O=C(NS(=O)(=O)c1ccc(NC[C@@H]2CO[C@@H]3OCC[C@H]23)c([N+](=O)[O-])c1)c1ccc(N2CCN([C@@H]3CCCCc4c(Br)cc(F)cc43)CC2)cc1Oc1cnc2[nH]ccc2c1 (relative stereo) [Compound 81, 2-((1H-pyrrolo[2,3-b]pyridin-5-yl)oxy)-4-(4-((R)-1-bromo-3-fluoro-6,7,8,9-tetrahydro-5H-benzo[7]annulen-5-yl)piperazin-1-yl)-N-((4-((((3R,3aR,6aS)-hexahydrofuro[2,3-b]furan-3-yl)methyl)amino)-3-nitrophenyl)sulfonyl)benzamide]	500 to 5000	20 to 200	200 to 2000
O=C(NS(=O)(=O)c1ccc(NC[C@H]2CO[C@H]3OCC[C@@H]23)c([N+](=O)[O-])c1)c1ccc(N2CCN([C@@H]3CCCCc4c(Br)cc(F)cc43)CC2)cc1Oc1cnc2[nH]ccc2c1 (relative stereo) [Compound 82, 2-((1H-pyrrolo[2,3-b]pyridin-5-yl)oxy)-4-(4-((R)-1-bromo-3-fluoro-6,7,8,9-tetrahydro-5H-benzo[7]annulen-5-yl)piperazin-1-yl)-N-((4-((((3S,3aS,6aR)-hexahydrofuro[2,3-b]furan-3-yl)methyl)amino)-3-nitrophenyl)sulfonyl)benzamide]	500 to 5000	< 20	200 to 2000
O=C(NS(=O)(=O)c1cccc([N+](=O)[O-])c1)c1ccc(N2CCN(C3CCCCc4ccccc43)CC2)cc1Oc1cnc2[nH]ccc2c1 (stereo not drawn) [Compound 5, 2-((1H-pyrrolo[2,3-b]pyridin-5-yl)oxy)-N-((3-nitrophenyl)sulfonyl)-4-(4-(6,7,8,9-tetrahydro-5H-benzo[7]annulen-5-yl)piperazin-1-yl)benzamide]	500 to 5000	20 to 200	200 to 2000
O=C(NS(=O)(=O)c1ccc(NCC2CCOCC2)c([N+](=O)[O-])c1)c1ccc(N2CC3(CCN(C4CCCCc5ccccc54)C3)C2)cc1Oc1cnc2[nH]ccc2c1 (stereo not drawn) [Compound 98, 2-((1H-pyrrolo[2,3-b]pyridin-5-yl)oxy)-N-((3-nitro-4-(((tetrahydro-2H-pyran-4-yl)methyl)amino)phenyl)sulfonyl)-4-(6-(6,7,8,9-tetrahydro-5H-benzo[7]annulen-5-yl)-2,6-diazaspiro[3.4]octan-2-yl)benzamide]	500 to 5000	20 to 200	–
CC(C)(C)OC(=O)N1CC2CC1CC2CNc1ccc(S(=O)(=O)NC(=O)c2ccc(N3CCN([C@@H]4CCCCc5c(Cl)cccc54)CC3)cc2Oc2cnc3[nH]ccc3c2)cc1[N+](=O)[O-] (stereo partly drawn) [Compound 103, tert-butyl 5-(((4-(N-(2-((1H-pyrrolo[2,3-b]pyridin-5-yl)oxy)-4-(4-((R)-1-chloro-6,7,8,9-tetrahydro-5H-benzo[7]annulen-5-yl)piperazin-1-yl)benzoyl)sulfamoyl)-2-nitrophenyl)amino)methyl)-2-azabicyclo[2.2.1]heptane-2-carboxylate]	50 to 500	< 20	–
O=C(NS(=O)(=O)c1ccc(NCC2CC3CC2CN3)c([N+](=O)[O-])c1)c1ccc(N2CCN([C@@H]3CCCCc4c(Cl)cccc43)CC2)cc1Oc1cnc2[nH]ccc2c1 (stereo partly drawn) [Compound 105, 2-((1H-pyrrolo[2,3-b]pyridin-5-yl)oxy)-N-((4-(((2-azabicyclo[2.2.1]heptan-5-yl)methyl)amino)-3-nitrophenyl)sulfonyl)-4-(4-((R)-1-chloro-6,7,8,9-tetrahydro-5H-benzo[7]annulen-5-yl)piperazin-1-yl)benzamide]	50 to 500	< 20	–
CC(C)(C)OC(=O)N1CCC2(CC1)CC(CNc1ccc(S(=O)(=O)NC(=O)c3ccc(N4CCN([C@@H]5CCCCc6c(Cl)cccc65)CC4)cc3)cc1[N+](=O)[O-])C2 [Compound 116, tert-butyl (R)-2-(((4-(N-(4-(4-(1-chloro-6,7,8,9-tetrahydro-5H-benzo[7]annulen-5-yl)piperazin-1-yl)benzoyl)sulfamoyl)-2-nitrophenyl)amino)methyl)-7-azaspiro[3.5]nonane-7-carboxylate]	–	> 2000	> 2000
CC(=O)N1CCC2(CC1)CC(CNc1ccc(S(=O)(=O)NC(=O)c3ccc(N4CCN([C@@H]5CCCCc6c(Cl)cccc65)CC4)cc3)cc1[N+](=O)[O-])C2 [Compound 118, (R)-N-((4-(((7-acetyl-7-azaspiro[3.5]nonan-2-yl)methyl)amino)-3-nitrophenyl)sulfonyl)-4-(4-(1-chloro-6,7,8,9-tetrahydro-5H-benzo[7]annulen-5-yl)piperazin-1-yl)benzamide]	–	200 to 2000	> 2000
O=C(O)CCN1CCC2(CC1)CC(CNc1ccc(S(=O)(=O)NC(=O)c3ccc(N4CCN([C@@H]5CCCCc6c(Cl)cccc65)CC4)cc3Oc3cnc4[nH]ccc4c3)cc1[N+](=O)[O-])C2 [Compound 126, (R)-3-(2-(((4-(N-(2-((1H-pyrrolo[2,3-b]pyridin-5-yl)oxy)-4-(4-(1-chloro-6,7,8,9-tetrahydro-5H-benzo[7]annulen-5-yl)piperazin-1-yl)benzoyl)sulfamoyl)-2-nitrophenyl)amino)methyl)-7-azaspiro[3.5]nonan-7-yl)propanoic acid]	< 50	< 20	–
O=C(NS(=O)(=O)c1ccc(NCC2CC3(CCN(S(=O)(=O)C4CC4)CC3)C2)c([N+](=O)[O-])c1)c1ccc(N2CCN([C@@H]3CCCCc4c(Cl)cccc43)CC2)cc1Oc1cnc2[nH]ccc2c1 [Compound 127, (R)-2-((1H-pyrrolo[2,3-b]pyridin-5-yl)oxy)-4-(4-(1-chloro-6,7,8,9-tetrahydro-5H-benzo[7]annulen-5-y1)piperazin-1-yl)-N-((4-(((7-(cyclopropylsulfonyl)-7-azaspiro[3.5]nonan-2-yl)methyl)amino)-3-nitrophenyl)sulfonyl)benzamide]	< 50	< 20	–
CC(C)S(=O)(=O)N1CCC2(CC1)CC(CNc1ccc(S(=O)(=O)NC(=O)c3ccc(N4CCN([C@@H]5CCCCc6c(Cl)cccc65)CC4)cc3Oc3cnc4[nH]ccc4c3)cc1[N+](=O)[O-])C2 [Compound 128, (R)-2-((1H-pyrrolo[2,3-b]pyridin-5-yl)oxy)-4-(4-(1-chloro-6,7,8,9-tetrahydro-5H-benzo[7]annulen-5-yl)piperazin-1-yl)-N-((4-(((7-(isopropylsulfony1)-7-azaspiro[3.5]nonan-2-yl)methyl)amino)-3-nitrophenyl)sulfony1)benzamide]	< 50	< 20	–
O=C(NS(=O)(=O)c1ccc(NCC2CC3(CCCCC3)C2)c([N+](=O)[O-])c1)c1ccc(N2CCN([C@@H]3CCCCc4c(Cl)cccc43)CC2)cc1Oc1cnc2[nH]ccc2c1 [Compound 132, (R)-2-((1H-pyrrolo[2,3-b]pyridin-5-yl)oxy)-4-(4-(1-chloro-6,7,8,9-tetrahydro-5H-benzo[7]annulen-5-yl)piperazin-1-yl)-N-((3-nitro-4-((spiro[3.5]nonan-2-ylmethyl)amino)phenyl)sulfonyl)benzamide]	50 to 500	< 20	–
O=C(NS(=O)(=O)c1ccc(NCC2CC3(CCC4(CC3)OCCO4)C2)c([N+](=O)[O-])c1)c1ccc(N2CCN([C@@H]3CCCCc4c(Cl)cccc43)CC2)cc1Oc1cnc2[nH]ccc2c1 [Compound 133, (R)-2-((1H-pyrrolo[2,3-b]pyridin-5-yl)oxy)-N-((4-(((8,11-dioxadispiro[3.2.47.24]tridecan-2-yl)methyl)amino)-3-nitrophenyl)sulfony1)-4-(4-(1-chloro-6,7,8,9-tetrahydro-5H-benzo[7]annulen-5-yl)piperazin-1-yl)benzamide]	< 50	< 20	–
O=C(NS(=O)(=O)c1ccc(NCC2CC3(CCC(O)CC3)C2)c([N+](=O)[O-])c1)c1ccc(N2CCN([C@@H]3CCCCc4c(Cl)cccc43)CC2)cc1Oc1cnc2[nH]ccc2c1 (stereo partly drawn) [Compound 134, (R)-2-((1H-pyrrolo[2,3-b]pyridin-5-yl)oxy)-4-(4-(1-chloro-6,7,8,9-tetrahydro-5H-benzo[7]annulen-5-yl)piperazin-1-yl)-N-((4-(((7-hydroxyspiro[3.5]nonan-2-yl)methyl)amino)-3-nitrophenyl)sulfonyl)benzamide]	< 50	< 20	–
O=C(NS(=O)(=O)c1ccc(NCC2CC3(CCC(F)(F)CC3)C2)c([N+](=O)[O-])c1)c1ccc(N2CCN([C@@H]3CCCCc4c(Cl)cccc43)CC2)cc1Oc1cnc2[nH]ccc2c1 [Compound 135, (R)-2-((1H-pyrrolo[2,3-b]pyridin-5-yl)oxy)-4-(4-(1-chloro-6,7,8,9-tetrahydro-5H-benzo[7]annulen-5-yl)piperazin-1-yl)-N-((4-(((7,7-difluorospiro[3.5]nonan-2-y1)methyl)amino)-3-nitrophenyl)sulfonyl)benzamide]	< 50	< 20	–
